Measured values taken from ChEMBL document CHEMBL1268814, “Synthesis and biological evaluation of bivalent ligands for the cannabinoid 1 receptor” (J Med Chem, 2010).
Calls of active or inactive are those of the source. No cut-off for these calls is given here.

What follows are compounds tested against T1, Cannabinoid receptor 1 (Homo sapiens, UniProt P21554) (assay: Antagonist activity at human brain CB1 receptor assessed as inhibition for [35S]GTPgammaS binding at 10000 nM). Conditions: not given.
Assay type: functional

T1 sequence (P21554 whole entry): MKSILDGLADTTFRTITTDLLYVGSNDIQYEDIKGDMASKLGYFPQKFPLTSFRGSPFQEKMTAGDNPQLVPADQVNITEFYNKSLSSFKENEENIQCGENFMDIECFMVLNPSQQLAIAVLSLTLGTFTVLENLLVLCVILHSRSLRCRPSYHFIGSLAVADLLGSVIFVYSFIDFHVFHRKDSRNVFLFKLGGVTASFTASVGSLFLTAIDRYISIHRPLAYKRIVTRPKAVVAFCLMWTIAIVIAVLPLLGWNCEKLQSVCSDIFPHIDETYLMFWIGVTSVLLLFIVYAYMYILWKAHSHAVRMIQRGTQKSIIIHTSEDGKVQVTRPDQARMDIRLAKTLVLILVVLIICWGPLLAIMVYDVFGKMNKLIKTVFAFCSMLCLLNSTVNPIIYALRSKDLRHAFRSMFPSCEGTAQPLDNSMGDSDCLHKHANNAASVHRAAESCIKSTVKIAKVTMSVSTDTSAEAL

| Structure (SMILES) | Emax |
| --- | --- |
| Cc1c(C(=O)NCCCNCCCNC(=O)c2nn(-c3ccc(Cl)cc3Cl)c(-c3ccc(Cl)cc3)c2C)nn(-c2ccc(Cl)cc2Cl)c1-c1ccc(Cl)cc1 | -31.9% |
| Cc1c(C(=O)NCCCCCNCCCCCNC(=O)c2nn(-c3ccc(Cl)cc3Cl)c(-c3ccc(Cl)cc3)c2C)nn(-c2ccc(Cl)cc2Cl)c1-c1ccc(Cl)cc1 | 8.5% |
| Cc1c(C(=O)NCCNCCNC(=O)c2nn(-c3ccc(Cl)cc3Cl)c(-c3ccc(Cl)cc3)c2C)nn(-c2ccc(Cl)cc2Cl)c1-c1ccc(Cl)cc1 | -25.5% |
| Cc1c(C(=O)NCCCCCCCCCN(C)CCCCCCCCCNC(=O)c2nn(-c3ccc(Cl)cc3Cl)c(-c3ccc(Cl)cc3)c2C)nn(-c2ccc(Cl)cc2Cl)c1-c1ccc(Cl)cc1 | -23% |
| Cc1c(C(=O)NCCCCCN(C)CCCCCNC(=O)c2nn(-c3ccc(Cl)cc3Cl)c(-c3ccc(Cl)cc3)c2C)nn(-c2ccc(Cl)cc2Cl)c1-c1ccc(Cl)cc1 | -13.1% |

These compounds were tested against T1, Cannabinoid receptor 1 (assay: Antagonist activity at human brain CB1 receptor assessed as inhibition for [35S]GTPgammaS binding). Conditions: not given.
Assay type: functional

| Structure (SMILES) | EC50 |
| --- | --- |
| Cc1c(C(=O)NCCCNCCCNC(=O)c2nn(-c3ccc(Cl)cc3Cl)c(-c3ccc(Cl)cc3)c2C)nn(-c2ccc(Cl)cc2Cl)c1-c1ccc(Cl)cc1 | 0.0842 µM |
| Cc1c(C(=O)NCCCCCNCCCCCNC(=O)c2nn(-c3ccc(Cl)cc3Cl)c(-c3ccc(Cl)cc3)c2C)nn(-c2ccc(Cl)cc2Cl)c1-c1ccc(Cl)cc1 | 0.033 µM |
| Cc1c(C(=O)NCCNCCNC(=O)c2nn(-c3ccc(Cl)cc3Cl)c(-c3ccc(Cl)cc3)c2C)nn(-c2ccc(Cl)cc2Cl)c1-c1ccc(Cl)cc1 | 0.237 µM |
| Cc1c(C(=O)NCCCCCCCCCN(C)CCCCCCCCCNC(=O)c2nn(-c3ccc(Cl)cc3Cl)c(-c3ccc(Cl)cc3)c2C)nn(-c2ccc(Cl)cc2Cl)c1-c1ccc(Cl)cc1 | 0.161 µM |
| Cc1c(C(=O)NCCCCCN(C)CCCCCNC(=O)c2nn(-c3ccc(Cl)cc3Cl)c(-c3ccc(Cl)cc3)c2C)nn(-c2ccc(Cl)cc2Cl)c1-c1ccc(Cl)cc1 | 0.0598 µM |

What follows are compounds tested against T1, Cannabinoid receptor 1 (assay: biochemical). Conditions: not given.
Assay type: cell-based, HEK293

| Structure (SMILES) | Ki |
| --- | --- |
| Cc1c(C(=O)NCCCNCCCNC(=O)c2nn(-c3ccc(Cl)cc3Cl)c(-c3ccc(Cl)cc3)c2C)nn(-c2ccc(Cl)cc2Cl)c1-c1ccc(Cl)cc1 | 0.0419 µM |
| Cc1c(C(=O)NCCCCCNCCCCCNC(=O)c2nn(-c3ccc(Cl)cc3Cl)c(-c3ccc(Cl)cc3)c2C)nn(-c2ccc(Cl)cc2Cl)c1-c1ccc(Cl)cc1 | 0.0304 µM |
| Cc1c(C(=O)NCCNCCNC(=O)c2nn(-c3ccc(Cl)cc3Cl)c(-c3ccc(Cl)cc3)c2C)nn(-c2ccc(Cl)cc2Cl)c1-c1ccc(Cl)cc1 | 0.094 µM |
| Cc1c(C(=O)NCCCCCCCCCN(C)CCCCCCCCCNC(=O)c2nn(-c3ccc(Cl)cc3Cl)c(-c3ccc(Cl)cc3)c2C)nn(-c2ccc(Cl)cc2Cl)c1-c1ccc(Cl)cc1 | 0.0941 µM |
| Cc1c(C(=O)NCCCCCN(C)CCCCCNC(=O)c2nn(-c3ccc(Cl)cc3Cl)c(-c3ccc(Cl)cc3)c2C)nn(-c2ccc(Cl)cc2Cl)c1-c1ccc(Cl)cc1 | 0.00635 µM |

What follows are compounds tested against T1, Cannabinoid receptor 1 (assay: not given). Conditions: CHO.

| Structure (SMILES) | Ke |
| --- | --- |
| Cc1c(C(=O)NCCCNCCCNC(=O)c2nn(-c3ccc(Cl)cc3Cl)c(-c3ccc(Cl)cc3)c2C)nn(-c2ccc(Cl)cc2Cl)c1-c1ccc(Cl)cc1 | 1300 nM |
| Cc1c(C(=O)NCCCCCNCCCCCNC(=O)c2nn(-c3ccc(Cl)cc3Cl)c(-c3ccc(Cl)cc3)c2C)nn(-c2ccc(Cl)cc2Cl)c1-c1ccc(Cl)cc1 | 476 nM |
| Cc1c(C(=O)NCCNCCNC(=O)c2nn(-c3ccc(Cl)cc3Cl)c(-c3ccc(Cl)cc3)c2C)nn(-c2ccc(Cl)cc2Cl)c1-c1ccc(Cl)cc1 | 2700 nM |
| Cc1c(C(=O)NCCCCCCCCCN(C)CCCCCCCCCNC(=O)c2nn(-c3ccc(Cl)cc3Cl)c(-c3ccc(Cl)cc3)c2C)nn(-c2ccc(Cl)cc2Cl)c1-c1ccc(Cl)cc1 | inactive |
| Cc1c(C(=O)NCCCCCN(C)CCCCCNC(=O)c2nn(-c3ccc(Cl)cc3Cl)c(-c3ccc(Cl)cc3)c2C)nn(-c2ccc(Cl)cc2Cl)c1-c1ccc(Cl)cc1 | 108 nM |

What follows are compounds tested against T1, Cannabinoid receptor 1 (assay: Displacement of [3H]CP55940 from human CB1 receptor expressed in HEK293 cells). Conditions: not given.
Assay type: cell-based

| Structure (SMILES) | Ki |
| --- | --- |
| Cc1c(C(=O)NCCCNCCCNC(=O)c2nn(-c3ccc(Cl)cc3Cl)c(-c3ccc(Cl)cc3)c2C)nn(-c2ccc(Cl)cc2Cl)c1-c1ccc(Cl)cc1 | 0.174 µM |
| Cc1c(C(=O)NCCCCCNCCCCCNC(=O)c2nn(-c3ccc(Cl)cc3Cl)c(-c3ccc(Cl)cc3)c2C)nn(-c2ccc(Cl)cc2Cl)c1-c1ccc(Cl)cc1 | 0.0681 µM |
| Cc1c(C(=O)NCCNCCNC(=O)c2nn(-c3ccc(Cl)cc3Cl)c(-c3ccc(Cl)cc3)c2C)nn(-c2ccc(Cl)cc2Cl)c1-c1ccc(Cl)cc1 | 0.229 µM |
| Cc1c(C(=O)NCCCCCCCCCN(C)CCCCCCCCCNC(=O)c2nn(-c3ccc(Cl)cc3Cl)c(-c3ccc(Cl)cc3)c2C)nn(-c2ccc(Cl)cc2Cl)c1-c1ccc(Cl)cc1 | 0.247 µM |
| Cc1c(C(=O)NCCCCCN(C)CCCCCNC(=O)c2nn(-c3ccc(Cl)cc3Cl)c(-c3ccc(Cl)cc3)c2C)nn(-c2ccc(Cl)cc2Cl)c1-c1ccc(Cl)cc1 | 0.0387 µM |

These compounds were tested against Cannabinoid receptor 2 (Homo sapiens, UniProt P34972) (assay: Displacement of [3H]CP55940 from human CB2 receptor expressed in CHOK1 cells). Conditions: not given.
Assay type: cell-based, CHO-K1

Cannabinoid receptor 2, sequence (P34972 whole entry): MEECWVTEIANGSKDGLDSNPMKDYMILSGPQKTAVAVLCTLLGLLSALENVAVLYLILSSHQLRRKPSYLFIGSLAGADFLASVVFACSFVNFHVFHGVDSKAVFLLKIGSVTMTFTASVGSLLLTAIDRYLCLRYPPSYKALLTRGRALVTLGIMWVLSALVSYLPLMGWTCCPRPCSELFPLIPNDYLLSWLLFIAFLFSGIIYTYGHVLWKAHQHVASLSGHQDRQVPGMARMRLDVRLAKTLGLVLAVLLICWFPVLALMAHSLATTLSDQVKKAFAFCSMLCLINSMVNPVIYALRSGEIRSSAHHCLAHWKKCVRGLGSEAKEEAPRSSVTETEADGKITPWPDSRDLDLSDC

| Structure (SMILES) | Ki |
| --- | --- |
| Cc1c(C(=O)NCCCNCCCNC(=O)c2nn(-c3ccc(Cl)cc3Cl)c(-c3ccc(Cl)cc3)c2C)nn(-c2ccc(Cl)cc2Cl)c1-c1ccc(Cl)cc1 | 0.496 µM |
| Cc1c(C(=O)NCCCCCNCCCCCNC(=O)c2nn(-c3ccc(Cl)cc3Cl)c(-c3ccc(Cl)cc3)c2C)nn(-c2ccc(Cl)cc2Cl)c1-c1ccc(Cl)cc1 | 0.451 µM |
| Cc1c(C(=O)NCCNCCNC(=O)c2nn(-c3ccc(Cl)cc3Cl)c(-c3ccc(Cl)cc3)c2C)nn(-c2ccc(Cl)cc2Cl)c1-c1ccc(Cl)cc1 | 1.28 µM |
| Cc1c(C(=O)NCCCCCN(C)CCCCCNC(=O)c2nn(-c3ccc(Cl)cc3Cl)c(-c3ccc(Cl)cc3)c2C)nn(-c2ccc(Cl)cc2Cl)c1-c1ccc(Cl)cc1 | 1.04 µM |

These compounds were tested against T1, Cannabinoid receptor 1 (assay: Antagonist activity at human brain CB1 receptor by calcium mobilization assay). Conditions: read-out: pA2 (converted).
Assay type: functional

| Structure (SMILES) | Kb |
| --- | --- |
| Cc1c(C(=O)NCCCNCCCNC(=O)c2nn(-c3ccc(Cl)cc3Cl)c(-c3ccc(Cl)cc3)c2C)nn(-c2ccc(Cl)cc2Cl)c1-c1ccc(Cl)cc1 | 0.0389 µM |
| Cc1c(C(=O)NCCCCCNCCCCCNC(=O)c2nn(-c3ccc(Cl)cc3Cl)c(-c3ccc(Cl)cc3)c2C)nn(-c2ccc(Cl)cc2Cl)c1-c1ccc(Cl)cc1 | 0.0295 µM |
| Cc1c(C(=O)NCCNCCNC(=O)c2nn(-c3ccc(Cl)cc3Cl)c(-c3ccc(Cl)cc3)c2C)nn(-c2ccc(Cl)cc2Cl)c1-c1ccc(Cl)cc1 | 0.0832 µM |
| Cc1c(C(=O)NCCCCCCCCCN(C)CCCCCCCCCNC(=O)c2nn(-c3ccc(Cl)cc3Cl)c(-c3ccc(Cl)cc3)c2C)nn(-c2ccc(Cl)cc2Cl)c1-c1ccc(Cl)cc1 | 0.0295 µM |
| Cc1c(C(=O)NCCCCCN(C)CCCCCNC(=O)c2nn(-c3ccc(Cl)cc3Cl)c(-c3ccc(Cl)cc3)c2C)nn(-c2ccc(Cl)cc2Cl)c1-c1ccc(Cl)cc1 | 0.011 µM |

Each compound was assayed against Cannabinoid receptor 1 (Rattus norvegicus, UniProt P20272) (assay: Antagonist activity at rat brain CB1 receptor assessed as inhibition of [35S]GTPgammaS binding). Conditions: not given.
Assay type: functional

Cannabinoid receptor 1 (Rattus norvegicus, UniProt P20272), sequence (P20272 whole entry): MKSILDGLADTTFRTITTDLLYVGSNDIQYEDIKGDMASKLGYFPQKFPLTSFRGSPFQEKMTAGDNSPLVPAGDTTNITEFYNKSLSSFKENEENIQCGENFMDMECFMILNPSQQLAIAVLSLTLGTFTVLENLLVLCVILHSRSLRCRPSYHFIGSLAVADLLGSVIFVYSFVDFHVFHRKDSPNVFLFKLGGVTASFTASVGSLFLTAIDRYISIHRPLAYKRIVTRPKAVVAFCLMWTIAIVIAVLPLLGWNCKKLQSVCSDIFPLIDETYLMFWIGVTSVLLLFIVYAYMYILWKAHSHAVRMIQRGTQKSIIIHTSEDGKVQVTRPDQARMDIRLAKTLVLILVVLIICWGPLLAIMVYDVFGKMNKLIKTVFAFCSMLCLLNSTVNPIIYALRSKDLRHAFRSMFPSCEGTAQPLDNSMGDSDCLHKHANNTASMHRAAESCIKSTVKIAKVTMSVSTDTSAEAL

| Structure (SMILES) | EC50 |
| --- | --- |
| Cc1c(C(=O)NCCCNCCCNC(=O)c2nn(-c3ccc(Cl)cc3Cl)c(-c3ccc(Cl)cc3)c2C)nn(-c2ccc(Cl)cc2Cl)c1-c1ccc(Cl)cc1 | 0.718 µM |
| Cc1c(C(=O)NCCCCCNCCCCCNC(=O)c2nn(-c3ccc(Cl)cc3Cl)c(-c3ccc(Cl)cc3)c2C)nn(-c2ccc(Cl)cc2Cl)c1-c1ccc(Cl)cc1 | > 10 µM |
| Cc1c(C(=O)NCCNCCNC(=O)c2nn(-c3ccc(Cl)cc3Cl)c(-c3ccc(Cl)cc3)c2C)nn(-c2ccc(Cl)cc2Cl)c1-c1ccc(Cl)cc1 | > 10 µM |
| Cc1c(C(=O)NCCCCCCCCCN(C)CCCCCCCCCNC(=O)c2nn(-c3ccc(Cl)cc3Cl)c(-c3ccc(Cl)cc3)c2C)nn(-c2ccc(Cl)cc2Cl)c1-c1ccc(Cl)cc1 | > 10 µM |
| Cc1c(C(=O)NCCCCCN(C)CCCCCNC(=O)c2nn(-c3ccc(Cl)cc3Cl)c(-c3ccc(Cl)cc3)c2C)nn(-c2ccc(Cl)cc2Cl)c1-c1ccc(Cl)cc1 | 0.00178 µM |

What follows are compounds tested against Cannabinoid receptor 1 (Rattus norvegicus) (UniProt P20272) (assay: Antagonist activity at rat brain CB1 receptor assessed as inhibition of [35S]GTPgammaS binding at 10000 nM). Conditions: not given.
Assay type: functional

Cannabinoid receptor 1 (Rattus norvegicus), sequence (P20272 whole entry): as above

| Structure (SMILES) | Emax |
| --- | --- |
| Cc1c(C(=O)NCCCNCCCNC(=O)c2nn(-c3ccc(Cl)cc3Cl)c(-c3ccc(Cl)cc3)c2C)nn(-c2ccc(Cl)cc2Cl)c1-c1ccc(Cl)cc1 | -37.2% |
| Cc1c(C(=O)NCCCCCNCCCCCNC(=O)c2nn(-c3ccc(Cl)cc3Cl)c(-c3ccc(Cl)cc3)c2C)nn(-c2ccc(Cl)cc2Cl)c1-c1ccc(Cl)cc1 | -29.6% |
| Cc1c(C(=O)NCCNCCNC(=O)c2nn(-c3ccc(Cl)cc3Cl)c(-c3ccc(Cl)cc3)c2C)nn(-c2ccc(Cl)cc2Cl)c1-c1ccc(Cl)cc1 | -35.9% |
| Cc1c(C(=O)NCCCCCN(C)CCCCCNC(=O)c2nn(-c3ccc(Cl)cc3Cl)c(-c3ccc(Cl)cc3)c2C)nn(-c2ccc(Cl)cc2Cl)c1-c1ccc(Cl)cc1 | -3.8% |
